Structure (SMILES)	melting point
CCOC(=O)C(=O)Nc1ccc(C=Cc2ccc3ccccc3n2)cc1	160 to 162 °C
CCOC(=O)c1ccc(N2CCC(NCC(O)COc3ccc(N)nc3)CC2)nc1 (stereo not given)	120 to 122 °C
CSc1nc(-c2cc(C(=O)N(C)C)ccc2C)c2c(n1)N(c1c(F)cccc1F)C(=O)NC2	144 to 147 °C
CC(=NCCO)c1ccccc1NC(=O)C(Cl)(Cl)Cl	182 °C
COc1ccc2c(-c3ccccc3)c(C(=O)c3cccc(Cl)c3)sc2c1	105 °C
CC(C)COC(=O)Nc1ccc(Sc2c(O)c3c(Cl)cc(Cl)cc3[nH]c2=O)cc1	> 300 °C
CC1C(=O)NC2=NC=CCN21 (stereo not given)	212 °C
OC(CNCCN(c1ccccc1)c1ccccc1)COc1ccccc1 (stereo not given)	95 to 96 °C
CCOC(=O)C(=[N+]=[N-])C(=O)c1cc(I)cnc1Cl	84 to 85 °C
CCOC(=O)C(C)(C)Oc1ccc(-c2ccc(CCNC(=O)c3cc(OC)c(OC)c(OC)c3)cc2)cc1	< 20 °C
CC(C)(CCCSCSCCCC(C)(C)C(=O)O)C(=O)O	72 to 72.5 °C
COC(=O)C(=NO)C(=O)N1CCC(c2ccc(OC)c(OC3CCCC3)c2)CC1	159 to 160 °C
COc1cc2ncc(C#N)c(Nc3ccc(Cl)c4ccccc34)c2cc1OC	> 250 °C
Oc1ccc2c(c1)C=C(n1ccnc1)CC2	218 to 220 °C
COC(=O)c1ccc(Cc2cn(C)c3ccc(C(=O)OC)cc23)c(OC)c1	137 to 140 °C
CCCCCCCCCCCCCCCCCCCCOC(=O)P(=O)(O)O	87 to 89 °C
Cc1nc(Nc2ccccc2)sc1C(=O)c1ccc(Cl)c([N+](=O)[O-])c1	162 to 165 °C
Cc1cc(C)c2c(c1C)OC1(CCN(C)CC1)C2c1ccc(C(C)C)cc1 (stereo not given)	63 to 64 °C
CCC1=NC(=NOC(=O)NC)SC1(C)CC (stereo not given)	88 to 90 °C
C#CCOc1ccc(/C=C/c2nc3ccccc3c(=O)o2)cc1OC	177 to 178 °C
Cn1nc(S(C)=O)c(=O)c2ccccc21 (stereo not given)	187 to 189 °C
Cc1nc2ncnn2c(Cl)c1CCCl	81 to 82 °C
CC(C)COc1c(-c2ccc(S(C)(=O)=O)c(F)c2)cnn(-c2cccc(Cl)c2)c1=O	180 to 183 °C
CC(=C1SCCCS1)c1cccc(O)c1	63 to 64 °C
CN(CCCCCCCC(=O)O)c1cnc(-c2ccccc2)c(-c2ccccc2)n1	116 to 117 °C

Structure (SMILES)	melting point
Cc1ccccc1-c1c(NC(=O)Nc2ccc(F)cc2F)cnc2sc(Cl)cc12	225 to 226 °C
O=C(OCOCOC(=O)c1c(F)cccc1F)c1c(F)cccc1F	52 to 53 °C
CC(C)(CCn1cnnc1)NCC(O)c1ccc(O)c(CO)c1 (stereo not given)	125 to 127 °C
Cc1nc2c(N)nc3ccccc3c2n1CCOCCNS(=O)(=O)C(C)C	172 to 175 °C
CCOC(=O)C=Cc1ccc(OCc2csc(-c3ccccc3)n2)c(OC)c1	92 to 93 °C
COC[C@@H](N)C(=O)N(O)C(=O)OC(C)(C)C	83 to 85 °C
CCCCc1ccc2c(n1)C(C(N)=S)CCC2 (stereo not given)	54 to 56 °C
COc1cc2ncnc(NC3=CC(=O)C(Nc4ccccc4)=CC3=O)c2cc1OC	258 to 261 °C
CCCCCCCCCCCCNC(=S)NCCCC	49 to 55 °C
Nc1ccc2c(c1)CNC2	113 to 119 °C
CSCC(=O)[C@H](Cc1ccccc1)NC(=O)[C@H](CC(C)C)NC(=O)OCc1ccccc1	81 to 91 °C
CC(C)(C)OC(=O)CC[C@H](NC(=O)c1ccc(NCc2cnc(N)c(C#N)n2)cc1)C(=O)OC(C)(C)C	71 to 78 °C
CC(=O)Nc1cc2c3c(cccc3c1N1CCCC1)C(=O)N(O)C2=O	280 to 284 °C
COc1ccccc1C=CC(=O)C1=C(O)C(=C(C)Nc2ccccc2N)C(=O)OC1=O	148 to 150 °C
C#Cc1cccc(Nc2ncnc3c2ccn3CCOCCOC)c1	240 to 241 °C
CC(C)C[C@H](NC(=O)c1ccc(Cl)cc1)C(=O)N[C@@H](C(C)C)[C@@H](O)c1c(-c2ccccc2)c1=O	116 to 120 °C
CCCCOC(=O)COc1cc(F)ccc1C(=O)NCc1cccc([N+](=O)[O-])c1	80 to 81 °C
CC(C)(C)C(=O)Nc1cccc(C(F)(F)F)c1	107 °C
COc1ccc(I)c(CC(=O)O)c1	134 °C
CC(C=O)=Cc1cc([N+](=O)[O-])ccc1Cl	99 to 102 °C
COc1ccc(Cn2c(=O)nc(C3CC3)c3cc(-c4cccc(Cl)c4)ccc32)cc1	173 to 174 °C
CC/C(=C(\c1ccc(/C=C/C(=O)O)cc1)c1ccc(OC(=O)c2ccco2)cc1)c1ccccc1	170 to 172 °C
COc1ccc(C(C)C)cc1-c1cc(C(=O)OCc2ccccc2)c(OCc2ccccc2)cc1OCc1ccccc1	139 to 141 °C
CCOC(=O)c1nc2c(=O)[nH]c3cc(F)ccc3n2c1C	> 250 °C
CCOC(=O)C=C(NNc1c(C)cc(C)c([N+](=O)[O-])c1C)OC	82 to 83 °C

From a melting point compilation (Tetko et al.; mined from patent text by program, amines drawn as free bases though some values may be those of a salt)
